Assay results: patent US12180084B2, “Cerium (III) carbonate formulations” (THE REGENTS OF THE UNIVERSITY OF CALIFORNIA, priority 2019, dated 2024)

What was measured:
[1] = MB dye photodegradation in ZnO-based sunscreen film (Neutrogena Sheer Zinc Face Mineral Sunscreen SPF 50)
Experimental: A commercial ZnO-based sunscreen (Neutrogena Sheer Zinc Face™ Mineral Sunscreen SPF 50 consisting of 21.6% of ZnO solid as the only listed active ingredient) was mixed with Methylene Blue (MB) organic dye as follows. In a plastic cup, (10 g capacity; obtained from Flacktek Inc. USA), sunscreen (3 g; Neutrogena Sheer Zinc Face™ Mineral Sunscreen SPF 50) and an aqueous solution of 10^−3 M MB dye (0.6 mL) was mixed with a spatula for 3 minutes. Immediately afterwards, the mixture was high sheared in a Flactek high-speed mixer at 3500 rpm for 3 min. […] These wet drawn down coupons were treated with UV radiation in a photoreactor, without drying, for varying times and were subsequently directly extracted. The extraction employed ethanol solvent to remove MB dye and permit its quantification prior/post UV radiation exposure, so as to determine the extent of MB dye degradation by subtraction. Specifically, to accomplish this, two small strips (100 mg of each) were cut from the wet drawn-down coupons with a scissor/sharp blade so as to not smudge the film of applied sunscreen, and these strips were subsequently exposed to UV radiation in a photoreactor. The photoreactor was equipped with 14 UV-lamps of 254 nm wavelength and delivering a power of 145-155 lux for 4 h. The relative humidity during UV-exposure was controlled to be 100% by placing a water-filled Petri dish (200 mL capacity) in the photoreactor chamber for at least 16 h prior to start of photocatalysis experiment. […] This resulting clear ethanol solution of MB dye was used for measurement of the MB dye concentration UV-visible spectrophotometry, using the absorbance maximum at 654 nm. A control experiment was similarly performed to quantify amount of MB dye from sunscreen films which never underwent UV-radiation exposure (t=0 time point). […] The extent of dye photodegradation was determined by calculating the percentage of decrease in the absorbance intensity of dye at the wavelength of maximum absorption. […]

[2] = MB dye photodegradation in octacrylene-based sunscreen film (Blue Lizard Kids Australian Sunscreen SPF 30+); details: 1.5 wt. % added agent
Experimental: Films on filter paper were fabricated and photoreactor experiments were conducted exactly the same way as described in Example 7.2, using MB dye, except UV irradiation in the photoreactor was conducted for a period of 4 h. These films contained either no UV-protecting agent, or 1.5 wt. % of Ce2(CO3)3·6H2O that was synthesized according to Example 3. The slurry formulation for film fabrication, photoexposure to UV light, and MB dye extraction in ethanol were performed similar to Example 7.2, except Blue Lizard® Kids Australian Sunscreen SPF 30+ was used.
A 30 nm blue-shift of the wavelength of the absorbance maximum was observed (from 654 nm initially to 624 nm after 4 h of UV irradiation in the photoreactor). The degree of photodegradation was calculated by UV-visible spectrophotometry, by assuming the same extinction coefficient at 654 nm before UV irradiation and 624 nm after 4 h of UV irradiation in the photoreactor. Data in FIG. 25A corresponds to 64% MB dye photodegradation.

RBL-2H3 rat-cell line = experiment: Toxicity of mammalian cells to cerium carbonate, microscopy imaging; format: cell-based; details: 10 microliter of 1 mg in 1 mL water dispersion, imaging 20 min after addition
Experimental: A RBL-2H3 rat-cell line was used from the Berkeley cell-culture facility. […] Prior to microscopy imaging, cells were stored under 5% CO2 in air atmosphere at 37° C. A 10 microliter aliquot of an aqueous dispersion comprising 1 mg of cerium carbonate Ce2(CO3)3·6H2O (micron sized) in 1 mL of deionized water was added to the RBL-2H3 cells in the Petri dish. Microscopy imaging of the cells was performed before and 20 min after addition of the cerium carbonate. […] This viability of the cells appears to be similar both before and after treatment with cerium carbonate Ce2(CO3)3·6H2O (micron sized).

% of MB dye photodegradation after 4 h of UV irradiation in photoreactor ([1]; 0.5 wt. % added agent relative to sunscreen weight): 36%±2
% of MB dye photodegradation after 4 h of UV irradiation in photoreactor ([1]; 0.5 wt. % added agent relative to sunscreen weight, listed as Ce2(CO3)3•6H2O synthesized according to Example 3): 36 ± 2%
% of MB dye photodegradation after 4 h of UV irradiation in photoreactor ([1]; 1.5 wt. % added agent relative to sunscreen weight): 25%±2
MB dye degradation after 4 h of UV irradiation in photoreactor [2]: 45%
Structure (SMILES): O.O.O.O.O.O.O=C([O-])[O-].O=C([O-])[O-].O=C([O-])[O-].[Ce+3].[Ce+3] [Ce2(CO3)3·6H2O]
toxicity to cells (cell shape, viability) (RBL-2H3 rat-cell line): generally non-toxic to the cells
